Test results as given in patent US5504105A, “Pharmaceutical compositions containing ipriflavone, process for the preparation thereof and relative therapeutic use” (priority 1990, dated 1996).

Assays:
[1] = In-vivo bioavailability test: urinary excretion, capsules vs tablets, 8 healthy adult volunteers; design: species or system healthy adult volunteers (human); details: first study
Experimental: Concomitant drug treatment was avoided.
Urine was collected over the 24 hour period before treatment and on the tenth and eleventh days over the periods 0-24 hours and 24-48 hours after the assumption of the last dose. A homogenous sample (10 ml approx.) was prepared from the total urine excreted on the tenth and eleventh days; this sample was then stored at -20° C. until analised by HPLC.
The pharmacokinetic data were compared with those obtained administering an equivalent dose of ipriflavone in the standard formulation of 200 mg tablets three times daily (total dose 600 mg) according to an analogous study protocol.

[2] = cited from earlier work
[3] = human, in vivo
Experimental: (§1) In this comparative study all the conditions that could influence in some measure the bioavailability behaviour such as meals, drug administration or samples collection were strictly standardized.
(§2) The study was carried out in twelve young healthy volunteers in good health.
(§3) All the subjects were on a standard diet for all the period of the study.
(§4) For each treatment, after an overnight fast, each subject received at 8:00 a.m. on Day 1 the first oral dosing. From Day 1 to Day 10 the daily doses were administered during the meals. The two different treatments (A and B) were the following:
(§5) Treatment A: one 200 mg Ipriflavone Tablet 3 times daily at 8:00 a.m. , 1:00 p.m. and 8:00 p.m.;
(§6) Treatment B: one 300 mg Ipriflavone Scherer capsule two times daily at 8:00 a.m. and 8:00 p.m.

[4] = Further comparative bioavailability study: urinary excretion, treatments A and B, twelve healthy volunteers; type: in vivo, young healthy volunteers (human); details: each treatment, second study
Experimental: as §1, §2, §3, §4, §5, §6

[5] = in vivo; cited from earlier work

In the case of `CC(C)Oc1ccc2c(=O)c(-c3ccccc3)coc2c1` [Ipriflavone], the “unchanged ipriflavone in urine” value [1] is listed as “no detectable levels”, the half-life ([2]; human, in vivo, po) is listed as 9.8 h and the “peak plasma concentration of the unchanged drug” value ([2]; human, in vivo, po) is listed as 170 ng/mL. The “time to peak plasma concentration after administration” value ([2]; human, in vivo, po) was 1.3 h, the “absorption and metabolism in man” value ([2]; oral, man) was “absorbed rapidly and, furtherly, extensively metabolised equally rapidly” and the “mean increment in bioavailability” value [3] was 35%. For the same compound, the “plasma levels / metabolization in man” value [3] was “could not be quantified in several subjects”, the “unchanged ipriflavone in urine” value [4] was “no unchanged ipriflavone levels were found” and the effectiveness in osteoporosis [5] was “effective in preventing and treating post-menopausal and senile osteoporosis”.
